Assay results as given in the OPERA property sets (Mansouri et al. 2018).
Values after ≈ are worked out from the molar mass of the structure shown.

Details: 25 °C

solubility [mM]	Compound
1230 (≈ 106000 µg/mL)	CC1CCOC1 (stereo unspecified)
166 (≈ 10300 µg/mL)	CCS
33.1 (≈ 3850 µg/mL)	CCCC(C)(C)CO
0.214 (≈ 39.5 µg/mL)	CCc1ccccc1Br
427 (≈ 43600 µg/mL)	CC(C)[C@@H](C)CO
0.643 (≈ 110 µg/mL)	Cc1ccc(Br)cc1
79.4 (≈ 6680 µg/mL)	C=COC1CC1
4.9e-05 (≈ 0.0127 µg/mL)	Cc1c2ccccc2cc2c1cc(F)c1ccccc12
235 (≈ 20700 µg/mL)	CC(C)OC=O
46.8 (≈ 8810 µg/mL)	CCOC(=O)CCCC(=O)OCC
186 (≈ 16400 µg/mL)	CCC(C)OC (stereo unspecified)
0.0646 (≈ 12.9 µg/mL)	CC(C)c1ccccc1Br
0.316 (≈ 74.6 µg/mL)	Brc1ccccc1Br

Compound	solubility [mM]
Sc1ccccc1	7.58 (≈ 835 µg/mL)
Brc1cc(Br)cc(Br)c1	0.00251 (≈ 0.79 µg/mL)
ICCI	0.606 (≈ 171 µg/mL)
